One series deals with T1, P-gp (Homo sapiens, UniProt P08183).
T1 construct: host or cells: MDCK (MDR1-MDCK)
Nature of the series: MDR1-MDCK P-gp transwell bidirectional transport assay. The format is in vitro ADME. As to conditions: 10 μM, 90 min; for efflux ratio at 90 min, 10 µM / Papp A→B at 90 min, 10 µM / Papp B→A at 90 min, 10 µM: dog, MDCK-MDR1, MDR1-MDCK; for efflux ratio at 90 min, 10 µM: read-out: ER (efflux ratio) (converted); for Papp A-B / Papp B-A: MDR1-MDCK. The method, then: A novel compound collection composed of complex and diverse compounds derived from natural products, termed “Complexity-to-Diversity Collection” was employed. […] The CtD compounds were evaluated by the efflux pump and their permeability using the P-gp transwell assay using adapted and optimized known protocols. Compound transport across epithelial cells overexpressing P-gp from basolateral-to-apical and apical-to-basolateral directions were quantified to calculate permeability and efflux ratio.
P-gp transwell bidirectional transport assays. Unless noted otherwise, the transport assay was performed in triplicate in batches of 16 or 24 test compounds, with each batch containing quinidine as a substrate control and propranolol as a non-substrate control. MDR1-MDCK cells were plated at a density of 300,000 cells/cm^2 onto 96-well Falcon™ Multiwell Insert System with 1 µm pore polycarbonate filters with angled-bottom receiver plates (Coming) and were fed with the cell growth medium on day 2.
The donor solution was prepared by adding 1 mM DMSO stocks of compounds to make the final concentration […], and the receiver solution was prepared with equivalent volume of DMSO to make 1% DMSO in final assay chamber volumes.
After 80-96 hours since seeding, the growth media on both sides was aspirated. To the transwell plate (apical side), 50 μL of receiver and donor solutions prepared on a 96-well plate were added, and it was placed on top of a separate angled-bottom 96-well plate (basolateral side) containing 260 μL of receiver and donor solutions.
Following 90 minutes of incubation at 37° C. with shaking at 90 rpm, 20 μL aliquot of samples were taken from both the donor and receiver chambers, and the apical and basolateral sides. Aliquots of 4 test compounds were pooled for each category: apical-donor, apical-receiver, basolateral-donor, basolateral-receiver. To measure CO and mass balance, initial donor samples from both apical and basolateral side were set aside from the assay plate. Acetonitrile twice the volume of pooled samples was added and mixed thoroughly, and precipitated proteins were removed by centrifugation at 20,000 r.c.f for 10 minutes.
To ascertain the MDCK monolayer integrity, the solution on apical side contained 100 µM Lucifer Yellow (Millipore-Sigma). After 90 minutes of compound transport, Lucifer Yellow concentration in the basal well was measured using SpectraMax M3 (Molecular Devices) set to an excitation wavelength of 430 nm and an emission wavelength of 540 nm.
Samples were analyzed with the 5500 QTRAP LC/MS/MS system (AB Sciex) with a 1200 series HPLC system (Agilent Technologies) including a degasser, an autosampler, and a binary pump. The liquid chromatography separation was performed on an Agilent SB-Aq column (4.6×50 mm, 5 μm) (Agilent Technologies) with mobile phase A (0.1% formic acid in water) and mobile phase B (0.1% formic acid in acetonitrile). The flow rate was 0.3 ml min^−1. The linear gradient was optimized for each compound. The autosampler was set at 5° C. The injection volume was 15 μL. Mass spectra were acquired with both positive electrospray ionization at the ion spray voltage of 5,500 V and negative electrospray ionization at the ion spray voltage of −4,500 V. The source temperature was 450° C. The curtain gas, ion source gas 1, and ion source gas 2 were 33, 50 and 65, respectively. Multiple reaction monitoring was used to quantify metabolites.
Efflux data calculations.

In another series the test system is A375 cells. Put plainly: 72-hour cell viability assay (Alamar Blue), A375. The format is cell-based, human. As to conditions: for IC50: 72-hour incubation, Alamar Blue, V600E BRAF; for Emax: A-375, A375, 72-hour incubation. As to the method:
Cell Culture and reagents. All cell lines were grown in a 37° C., 5% CO2, humidified environment, in media containing 1% penicillin/streptomycin. Cell culture conditions are as follows: MDCK cells transfected with MDR1 (or ABCB1) were obtained from the Netherlands Cancer Institute (Amsterdam, The Netherlands) and maintained in DMEM with 10% fetal bovine serum (FBS, Gemini). Traditional cell lines A375, CHL-1, B16F10, and U118MG were grown in DMEM with 10% FBS, SK-MEL-28, U87 and T98G in EMEM with 10% FBS, AM-38 in EMEM with 20% HI-FBS (Gibco), HT29 in McCoy's 5A with 10% FBS, HCT116 in RPMI with 10% FBS. Compounds were dissolved in DMSO (1% final concentration, Sigma-Aldrich) for cell culture studies.
Cell viability assays. Cells were harvested, seeded in a 96-well plate and allowed to adhere overnight. Compound was added to each well in DMSO (1% final concentration). Cells were incubated for 72 hours before viability was assessed by the Alamar Blue Assay. Raptinal ([…]) was used as a dead control.
For orientation: The colour change of resazurin is a common sign of viable cells or microbes.

This note sets out measurements from patent publication US20250230151A1, “COMPOUNDS FOR CANCERS DRIVEN BY BRAF MUTATION” (THE BOARD OF TRUSTEES OF THE UNIVERSITY OF ILLINOIS, priority 2021, published 2025).

The Papp A→B is how fast a substance crosses the layer from the apical side. The Papp B→A is the apparent permeability from the basolateral to the apical side of a cell layer. One may read the IC50 as the point on the concentration scale where inhibition reaches its midpoint. A lower IC50 goes with higher potency.

Bounds are passed on as bounds.

T1 sequence (P08183 whole entry): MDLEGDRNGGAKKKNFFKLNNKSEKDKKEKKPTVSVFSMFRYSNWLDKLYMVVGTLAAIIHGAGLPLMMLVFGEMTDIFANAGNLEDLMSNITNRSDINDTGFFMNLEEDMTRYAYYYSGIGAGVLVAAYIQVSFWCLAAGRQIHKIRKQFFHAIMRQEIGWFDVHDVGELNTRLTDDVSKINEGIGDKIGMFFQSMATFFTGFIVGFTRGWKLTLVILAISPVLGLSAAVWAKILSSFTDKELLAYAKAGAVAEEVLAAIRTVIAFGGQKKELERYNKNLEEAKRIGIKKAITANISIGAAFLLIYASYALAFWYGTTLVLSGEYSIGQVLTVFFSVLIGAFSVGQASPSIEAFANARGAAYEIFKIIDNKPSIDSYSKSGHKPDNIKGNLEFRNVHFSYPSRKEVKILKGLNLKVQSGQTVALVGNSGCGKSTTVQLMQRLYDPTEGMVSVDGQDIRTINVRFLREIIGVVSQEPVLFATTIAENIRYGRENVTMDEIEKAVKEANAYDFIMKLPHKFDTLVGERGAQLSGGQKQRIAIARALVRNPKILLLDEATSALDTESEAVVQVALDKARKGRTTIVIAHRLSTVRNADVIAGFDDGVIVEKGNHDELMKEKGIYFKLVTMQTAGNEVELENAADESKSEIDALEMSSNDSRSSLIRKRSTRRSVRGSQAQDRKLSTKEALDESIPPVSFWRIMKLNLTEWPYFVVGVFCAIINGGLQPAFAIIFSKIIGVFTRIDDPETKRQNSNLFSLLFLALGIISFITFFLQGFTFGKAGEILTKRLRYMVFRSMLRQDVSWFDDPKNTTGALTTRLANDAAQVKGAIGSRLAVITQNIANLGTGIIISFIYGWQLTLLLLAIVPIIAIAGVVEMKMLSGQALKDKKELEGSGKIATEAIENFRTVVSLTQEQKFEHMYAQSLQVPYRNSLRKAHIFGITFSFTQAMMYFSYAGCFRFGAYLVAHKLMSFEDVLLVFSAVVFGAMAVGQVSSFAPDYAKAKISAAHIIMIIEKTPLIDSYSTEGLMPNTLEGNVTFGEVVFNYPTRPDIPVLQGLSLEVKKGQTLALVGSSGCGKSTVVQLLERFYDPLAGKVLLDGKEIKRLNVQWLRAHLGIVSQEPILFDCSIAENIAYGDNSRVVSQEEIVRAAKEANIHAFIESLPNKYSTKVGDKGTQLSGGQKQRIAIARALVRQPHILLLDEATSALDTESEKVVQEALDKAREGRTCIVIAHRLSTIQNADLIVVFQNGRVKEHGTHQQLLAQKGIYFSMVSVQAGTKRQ

Consider `C=C[C@H]1C[N@@]2CC[C@H]1C[C@@H]2[C@@H](O)c1ccnc2ccc(OC)cc12` [Quinidine, reference compound], for which, on P-gp, the efflux ratio at 90 min, 10 µM is 8.09.

On to `CC(C)(C)c1nc(-c2cccc(NS(=O)(=O)c3c(F)cccc3F)c2F)c(-c2ccnc(N[C@H]3CC[C@@H](C(=O)O)CC3)n2)s1` [6-85, (1s,4s)-4-((4-(2-(tert-butyl)-4-(3-((2,6-difluorophenyl)sulfonamido)-2-fluorophenyl)thiazol-5-yl)pyrimidin-2-yl)amino)cyclohexane-1-carboxylic acid], for which, at P-gp, the Papp A→B at 90 min, 10 µM was 0.709 ± 0.045 ×10⁻⁶ cm/s; the Papp B→A at 90 min, 10 µM stood at 2.26 ± 0.32 ×10⁻⁶ cm/s; the efflux ratio at 90 min, 10 µM is 3.22 ± 0.54. In the series on A375 cells (Homo sapiens, A-375, 72 h), this molecule gave an IC50 of 474 ± 11.8 nM.

Regarding `CC(C)(C)c1nc(-c2cccc(NS(=O)(=O)c3ccc(F)cc3C(F)(F)F)c2F)c(-c2ccnc(NCCCCC(=O)O)n2)s1` [6-181, 5-((4-(2-(tert-butyl)-4-(2-fluoro-3-((4-fluoro-2-(trifluoromethyl)phenyl)sulfonamido)phenyl)thiazol-yl)pyrimidin-2-yl)amino)pentanoic acid], the IC50 with A375 cells (Homo sapiens, A-375, 72 h) was over 50000 nM.

On to `CC(C)(C)c1nc(-c2cccc(NS(=O)(=O)c3c(F)cccc3F)c2F)c(-c2ccnc(Nc3ccc(C(=O)O)cc3)n2)s1` [6-77, 4-((4-(2-(tert-butyl)-4-(3-((2,6-difluorophenyl)sulfonamido)-2-fluorophenyl)thiazol-5-yl)pyrimidin-2-yl)amino)benzoic acid], for which, at P-gp, the Papp A→B at 90 min, 10 µM is 1.58 ± 0.335 ×10⁻⁶ cm/s; the Papp B→A at 90 min, 10 µM came out at 1.45 ± 0.077 ×10⁻⁶ cm/s; the efflux ratio at 90 min, 10 µM was 0.984 ± 0.164. In the series on A375 cells (Homo sapiens, A-375, 72 h), this molecule gave a half-maximal inhibitory concentration (IC50) of over 1000 nM.

In the series on A375 cells (Homo sapiens, A-375, 72 h), `CC(C)(C)c1nc(-c2c(F)ccc(NS(=O)(=O)c3ccc(F)cc3C(F)(F)F)c2F)c(-c2ccnc(N)n2)s1` [6-167, N-(3-(5-(2-aminopyrimidin-4-yl)-2-(tert-butyl)thiazol-4-yl)-2,4-difluorophenyl)-4-fluoro-2-(trifluoromethyl)benzenesulfonamide] gave an IC50 of over 3000 nM.

Turning to `CC(C)(C)c1nc(-c2cccc(NS(=O)(=O)c3c(F)cccc3F)c2F)c(-c2ccnc(CCCCC(=O)O)n2)s1` [6-131, 5-(4-(2-(tert-butyl)-4-(3-((2,6-difluorophenyl)sulfonamido)-2-fluorophenyl)thiazol-5-yl)pyrimidin-2-yl)pentanoic acid], on P-gp, the Papp A→B at 90 min, 10 µM was 0.449 ± 0.008 ×10⁻⁶ cm/s; the Papp B→A at 90 min, 10 µM was 1.03 ± 0.166 ×10⁻⁶ cm/s; the efflux ratio at 90 min, 10 µM is 1.93 ± 0.08. The IC50 in the series on A375 cells (Homo sapiens, A-375, 72 h) is 1580 ± 458 nM. In the series with A375 cells (Homo sapiens), this molecule gave an Emax of 60%.

The molecule `CC(C)(C)c1nc(-c2cccc(NS(=O)(=O)c3cc(C(F)(F)F)ccc3C(F)(F)F)c2F)c(-c2ccnc(N)n2)s1` [6-163, N-(3-(5-(2-aminopyrimidin-4-yl)-2-(tert-butyl)thiazol-4-yl)-2-fluorophenyl)-2,5-bis(trifluoromethyl)benzenesulfonamide] came in with an IC50 in the series on A375 cells (Homo sapiens, A-375, 72 h) of over 3000 nM.

As to `CC(C)(C)c1nc(-c2cccc(NS(=O)(=O)c3c(F)cccc3F)c2F)c(-c2ccnc(N[C@H]3CC[C@H](C(=O)O)CC3)n2)s1` [6-89, (1r,4r)-4-((4-(2-(tert-butyl)-4-(3-((2,6-difluorophenyl)sulfonamido)-2-fluorophenyl)thiazol-5-yl)pyrimidin-2-yl)amino)cyclohexane-1-carboxylic acid], on P-gp, the “Papp A-B” value was determined as 2.237 ± 0.126 ×10⁻⁶ cm/s; the “Papp B-A” value turned out to be 1.251 ± 0.436 ×10⁻⁶ cm/s; the Papp A→B at 90 min, 10 µM turned out to be 2.24 ± 0.126 ×10⁻⁶ cm/s; the Papp B→A at 90 min, 10 µM turned out to be 1.25 ± 0.436 ×10⁻⁶ cm/s. Besides, the efflux ratio at 90 min, 10 µM on P-gp was 0.56 ± 0.18. In the series with A375 cells, this molecule had an IC50 of 166 ± 4.09 nM. For the same molecule, in the series on A375 cells (Homo sapiens, A-375, 72 h), half-maximal inhibition (IC50) required 166 ± 4.09 nM.

For the molecule `CC(C)(C)c1nc(-c2cccc(NS(=O)(=O)c3c(F)cccc3F)c2F)c(-c2ccnc(CCCC(=O)O)n2)s1` [6-191, 4-(4-(2-(tert-butyl)-4-(3-((2,6-difluorophenyl)sulfonamido)-2-fluorophenyl)thiazol-5-yl)pyrimidin-2-yl)butanoic acid], the Papp B→A at 90 min, 10 µM at P-gp stood at 1.45 ± 0.172 ×10⁻⁶ cm/s. For the same molecule, half-maximal inhibition in the series on A375 cells (Homo sapiens, A-375, 72 h) (IC50) was put at 558 ± 118 nM. This molecule yielded an Emax with A375 cells (Homo sapiens) of 60%.

With `CC(C)(C)c1nc(-c2cccc(NS(=O)(=O)c3c(F)cccc3F)c2F)c(-c2ccnc(N[C@@H]3CC[C@H](C(=O)O)C3)n2)s1` [6-91, (1S,3R)-3-((4-(2-(tert-butyl)-4-(3-((2,6-difluorophenyl)sulfonamido)-2-fluorophenyl)thiazol-5-yl)pyrimidin-2-yl)amino)cyclopentane-1-carboxylic acid], at P-gp, the Papp A→B at 90 min, 10 µM stood at 0.493 ± 0.148 ×10⁻⁶ cm/s; the Papp B→A at 90 min, 10 µM came to 0.626 ± 0.238 ×10⁻⁶ cm/s; the efflux ratio at 90 min, 10 µM was 1.3 ± 0.38. In the series with A375 cells (Homo sapiens, A-375, 72 h), this molecule displayed an IC50 of over 1000 nM.

For `CC(C)(C)c1nc(-c2cccc(NS(=O)(=O)c3ccc(F)cc3C(F)(F)F)c2F)c(-c2ccnc(N)n2)s1` [6-166, N-(3-(5-(2-aminopyrimidin-4-yl)-2-(tert-butyl)thiazol-4-yl)-2-fluorophenyl)-4-fluoro-2-(trifluoromethyl)benzenesulfonamide], in the series with A375 cells (Homo sapiens, A-375, 72 h), the IC50 is over 3000 nM.

The molecule `CC(C)(C)c1nc(-c2c(F)ccc(NS(=O)(=O)c3ccc(F)cc3C(F)(F)F)c2F)c(-c2ccnc(NCCCCC(=O)O)n2)s1` [6-179, 5-((4-(2-(tert-butyl)-4-(2,6-difluoro-3-((4-fluoro-2-(trifluoromethyl)phenyl)sulfonamido)phenyl)thiazol-5-yl)pyrimidin-2-yl)amino)pentanoic acid] had a Papp B→A at 90 min, 10 µM at P-gp of 1.79 ± 0.064 ×10⁻⁶ cm/s. In the series on A375 cells (Homo sapiens, A-375, 72 h), the IC50 is 14700 ± 6160 nM.

Consider `CC(C)(C)c1nc(-c2c(F)ccc(NS(=O)(=O)c3cc(C(F)(F)F)ccc3C(F)(F)F)c2F)c(-c2ccnc(N)n2)s1` [6-145, N-(3-(5-(2-aminopyrimidin-4-yl)-2-(tert-butyl)thiazol-4-yl)-2,4-difluorophenyl)-2,5-bis(trifluoromethyl)benzenesulfonamide], for which, at P-gp, the Papp A→B at 90 min, 10 µM is 0.94 ± 0.05 ×10⁻⁶ cm/s; the Papp B→A at 90 min, 10 µM came out at 5.66 ± 0.19 ×10⁻⁶ cm/s; the efflux ratio at 90 min, 10 µM is 6.05 ± 0.5. Moreover, the IC50 with A375 cells (Homo sapiens, A-375, 72 h) is over 3000 nM.

For the molecule `CC(C)(C)c1nc(-c2cccc(NS(=O)(=O)c3c(F)cccc3F)c2F)c(-c2ccnc(NCCCCC(=O)O)n2)s1` [6-83, 5-((4-(2-(tert-butyl)-4-(3-((2,6-difluorophenyl)sulfonamido)-2-fluorophenyl)thiazol-5-yl)pyrimidin-2-yl)amino)pentanoic acid], on P-gp, the “Papp A-B” value came out at 1.089 ± 0.097 ×10⁻⁶ cm/s; the “Papp B-A” value is 2.165 ± 0.371 ×10⁻⁶ cm/s; the Papp A→B at 90 min, 10 µM worked out at 1.09 ± 0.097 ×10⁻⁶ cm/s; the Papp B→A at 90 min, 10 µM stood at 2.17 ± 0.371 ×10⁻⁶ cm/s. The efflux ratio at 90 min, 10 µM at P-gp is 1.96 ± 0.22. The molecule also came in with an IC50 with A375 cells of 115 ± 9.85 nM. Half-maximal inhibition in the series with A375 cells (Homo sapiens, A-375, 72 h) (IC50) required 115 nM. The molecule also returned an Emax in the series with A375 cells (Homo sapiens) of 65%.

In the case of `CC(C)NCC(O)COc1cccc2ccccc12` (stereo not shown) [Propranolol, reference compound], the efflux ratio at 90 min, 10 µM at P-gp is 1.18.

`CC(C)(C)c1nc(-c2cccc(NS(=O)(=O)c3c(F)cccc3F)c2F)c(-c2ccnc(CCCCCC(=O)O)n2)s1` [6-193, 6-(4-(2-(tert-butyl)-4-(3-((2,6-difluorophenyl)sulfonamido)-2-fluorophenyl)thiazol-5-yl)pyrimidin-2-yl)hexanoic acid] displayed a half-inhibitory concentration (IC50) in the series on A375 cells (Homo sapiens, A-375, 72 h) of 1750 ± 21.9 nM. In addition, the Emax with A375 cells (Homo sapiens) came to 60%.
